The source of these data is patent US8846653B2, “Delta-tocotrienol treatment and prevention of pancreatic cancer” (University of South Florida, priority 2006, dated 2014).

What all share (assay type): cell-based, human
The test system of one experiment is MIA PaCa2 cells. The experiment in a line: MTT cell viability, δ-tocotrienol, fluorouracil or combination. As for the experimental part: FIG. 39 is a graph MIA PaCa2 pancreatic cancer cells (3×10^3) treated with indicated concentrations of delta-tocotrienol, fluorouracil (5FU), or a combination of the indicated delta-tocotrienol and 5FU.
The MiaPaCa 2 cells were plated as above into 96 well plates and treated the following day with increasing concentrations of δ-tocotrienol, fluorouracil (5FU), or a combination of δ-tocotrienol and fluorouracil. The cells were collected and analyzed for cell viability using an MTT assay. […] MIA PaCa2 cells (3×10^3) were cultured as described in the Examples above, in 96-well plates and treated the following day with vehicle, δ-tocotrienol, fluorouracil, or a combination of δ-tocotrienol and fluorouracil.

The subject of another experiment is MIA PaCa-2 cells. In words: Trypan blue cell death, δ-tocotrienol, 5-FU or combination, 24 hours. Conditions: MIA PaCa-2, 50 μM each. As for the experimental part: MIA PaCa-2 cells were treated vehicle or an anti-proliferative treatment comprising 50 μM δ-tocotrienol, 50 μM 5-FU, or 50 μM δ-tocotrienol and 50 μM 5-FU for 24 hours. Cells were harvested, fixed, permeablized and stained with trypan blue.

In experiment [1] the test system is MiaPaCa2 pancreatic cancer cells. In words: Malignant transformation (Soft Agar) colony formation. Conditions: MiaPaCa2, 50 μM, vs vehicle. As for the experimental part:
FIG. 20 is a graph showing the effect of tocotrienols on pancreatic cancer malignant transformation (Soft Agar). […] Bars, SE (n=3). *p<0.001 vs. vehicle. **p<0.02 vs. vehicle. ***p<0.05 vs. vehicle. T=tocopherol, T3=tocotrienol.
MiaPaCa2 cells (3×10^3) were cultured as described in the Examples above, in 96-well plates and treated with 50 μM of different tocopherol or tocotrienol.

In experiment [2] the test system is MIA PaCa-2 cells (pZWL vector and myrAKT). The experiment in a line: Cell death (trypan blue) in vector and myrAKT MIA PaCa-2 cells. Conditions: MIA PaCa-2 vector vs myr-AKT cells, 24 hours, compared to vehicle. As for the experimental part:
FIG. 12 is a graph wherein MIA PaCa-2 cells (pZWL vector and myrAKT) were treated without serum vehicle or δ-tocotrienol (50 μM) for 24 hours, with and without a 10-hour caspase 8/3 inhibitor pretreatment. Cells were also treated with TRAIL as a positive control. Cells were then harvested, fixed, permeablized and stained with trypan blue.
To further identify the role of AKT in the apoptotic pathways noted in Example 2, functional overexpression of CA-AKT was analyzed in Mia-PaCa2 pancreatic cancer cells. MIA PaCa-2 cells were treated with pZWL vector and myrAKT, a retroviral vector encoding myristoylated AKT, with or without serum, vehicle, or δ-tocotrienol (40 or 50 μM) for 24 hours, with and without a 10-hour caspase 8 inhibitor pretreatment. Cells were also treated with TRAIL as a positive control. Cells were then harvested, fixed, permeablized and stained with trypan blue.
The myristoylated AKT rescued δ-tocotrienol suppression PI3K-AKT signaling. The MiaPaCa-2 parental cell lines were stably transfected using constitutively active myristoylated AKT in a pWZL vector construct to generate MiaPaCa-2AKT cells. […] Lastly, pretreatment with caspase 3, 8 and 9 inhibitors rescued tocotrienol induced cell death.

`O=c1[nH]cc(F)c(=O)[nH]1` [5-FU, fluorouracil]: the “concentration at which the effect became significant vs vehicle” value in the experiment on MIA PaCa2 cells came out at 50 µM. In the experiment on MIA PaCa-2 cells, the “cell death (Trypan Blue)” value is “increased cell death”.
Regarding `Cc1cc(O)cc2c1O[C@](C)(CCC[C@H](C)CCC[C@H](C)CCCC(C)C)CC2` [δ-tocopherol], in experiment [1], the “malignant transformation (Soft Agar)” value was “no effect”.

B1: TRAIL: positive control for cell death (protein, UniProt P50591 1-281, looked up)
Tumor necrosis factor ligand …: MAMMEVQGGPSLGQTCVLIVIFTVLLQSLCVAVTYVYFTNELKQMQDKYSKSGIACFLKEDDSYWDPNDEESMNSPCWQVKWQLRQLVRKMILRTSEETISTVQEKQQNISPLVRERGPQRVAAHITGTRGRSNTLSSPNSKNEKALGRKINSWESSRSGHSFLSNLHLRNGELVIHEKGFYYIYSQTYFRFQEEIKENTKNDKQMVQYIYKYTSYPDPILLMKSARNSCWSKDAEYGLYSIYQGGIFELKENDRIFVSVTNEHLIDMDHEASFFGAFLVG
As to B1, the cell death result in experiment [2] is on record as “comparable to vehicle”.
